From PubChem BioAssay AID2060892 (Molecular Pharmacology Branch, DTP, NCI, 2025)
pIC50: −log10 of the molar value. Where “and” joins values, the source holds several entries; their conditions need not be identical. Equal entries are not always repeated.

Test system: HOP-62 complex spheroids with HUVEC/MSC, viability
Assay: Anticancer human tumor HOP-62 cell line growth inhibition [RAS];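 note: spheroids exposed to agents for seven days before readout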;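 for viability, T/C: 100% = DMSO vehicle control viability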
Settings: for viability, T/C: stronger effect = lower value
Source text: RAS pathway inhibitors in Combinations in Complex Spheroids
A high-throughput screen of multi-cell type tumor spheroids was designed to identify active combinations of RAS pathway inhibitors and targeted small molecules. Complex spheroids include a stromal component modeled by human endothelial cells (HUVEC) and fibroblasts modeled by human mesenchymal stem cells (MSCs). The concentration ranges selected for each drug and investigational agent were based upon clinically achievable concentrations if the clinical Cmax of the agent was known.
Compounds. The drugs and investigational agents: abemaciclib (NSC768073), cobimetinib (NSC768068), divarasib (GDC6063, NSC841802), docetaxel (NSC628503), GDC-1971 (RLY-1971, NSC841576), gemcitabine (NSC613327), inavolisib (NSC800729), ipatasertib (NSC767898), KB-0742 (NSC834161), MRTX-1133 (NSC836407), osimertinib (NSC779217), RMC-4630 (NSC839698), RMC-6236 (NSC851965), RMC-6291 (NSC852671), Ro-3306 (NSC812927), sapanisertib (NSC764658), SN-38 (NSC673596), staurosporine (NSC755774), SY5609 (NSC837396), and tovorafenib (DAY101, NSC766906), were obtained from the National Cancer Institute (NCI) Developmental Therapeutics Program Chemical Repository. The FDA-approved anticancer drug set is available from the NCI Developmental Therapeutics Program. […] The stock solutions were prepared in dimethyl sulfoxide (DMSO, Sigma-Aldrich, St. Louis, MO, cat. D2650) at 800-fold the tested concentration and stored at -70 degrees C prior to their use. All drugs and investigational agents were tested over a range starting from a high concentration at or near the clinical Cmax and decreasing in half-log increments. If the clinical Cmax for an agent had not been determined, the highest concentration tested was 10 microM.
Cell Culture. All cells were maintained in an incubator at 37 degrees C and 5% CO2 with 95% humidity. The PDC lines were cultured according to standard operating procedures established by the NCI PDMR. All PDCs were thawed and cultured in Matrigel-coated flasks prepared with a working solution of 1X Ham's F-12 nutrient mix, without supplementation (Invitrogen, Waltham, MA, cat. 11765054), 100 U/mL penicillin-streptomycin (Invitrogen, cat. 15140122), and 2.5% Matrigel (Corning Inc., Corning, NY, cat. 354248) for the first three passages. The 362531-283-R-J2-PDC and 782815-120-R-J1-PDC lines were cultured in 6C/Colon 1B media, which includes advanced DMEM/F-12 (Thermo Fisher Scientific, cat. 12634028), 10 mM HEPES (Thermo Fisher Scientific, cat. 15630080), 1X GlutaMAX supplement (Thermo Fisher Scientific, cat. 35050061), 0.1 mg/mL primocin (InvivoGen, San Diego, CA, cat. ant-pm-2), 10% defined fetal bovine serum, heat inactivated (HyClone Laboratories Inc., Logan, UT, cat. SH30070.03HI), 50% L-WRN conditioned media (ATCC, cat. CRL-3276), 1.25 mM N-Acetyl-L-cysteine (Sigma-Aldrich, cat. A9165), 10 mM nicotinamide (Sigma-Aldrich, cat. N0636), 1X B-27 supplement (Thermo Fisher Scientific, cat. 17504044), 1X N-2 supplement (Thermo Fisher Scientific, cat. 17502048), 50 ng/mL human EGF (Thermo Fisher Scientific, cat. PHG0311), and 10 microM Y-27632 dihydrochloride (Tocris Bioscience, cat. 1254). The K12877-001-R-J1-PDC line was cultured in 6I media, which includes all 6C/Colon 1B media plus 10 ng/mL human FGF-10 (PeproTech, cat. 100-26), 1 ng/mL human FGF-2 (PeproTech, cat. 100-18B), 1 µM prostaglandin E2 (Tocris Bioscience, cat. 2296), […] hydrocortisone (Sigma-Aldrich, cat. H4001), and […] bovine insulin (Sigma-Aldrich, cat. I6634). The K86415-001-R-J1-PDC line was cultured in 6D media, which includes all 6C/Colon 1B media components minus the L-WRN conditioned media. The 485176-168-R4-J1-PDC was cultured in PANC media, which includes all 6C/Colon 1B media plus 100 ng/mL human FGF-10 (PeproTech, cat. 100-26), 500 nM SB-431542 (Selleckchem, cat. S1067), and 10 nM gastrin (Tocris Bioscience, cat. 3006). […]

With `C#Cc1c(F)ccc2cc(O)cc(-c3ncc4c(N5CC6CCC(C5)N6)nc(OCC56CCCN5CC(F)C6)nc4c3F)c12` (configuration not stated) the viability, T/C (compound 0.0316 µM) was 107% [middle of 8 runs], the viability, T/C (compound 0.1 µM) was 113% [middle of 8 runs] and the viability, T/C (compound 0.316 µM) was 109% [middle of 8 runs]. The viability, T/C (compound 1 µM) was 100% [middle of 8 runs], the viability, T/C (compound 3.16 µM) was 81.1% [middle of 8 runs] and the viability, T/C (compound 10 µM) was 48% [middle of 8 runs].
`C=CC(=O)N1CCN(c2nc(OCC3CCCN3C)nc3c(F)c(-c4nc(N)cc(C)c4C(F)(F)F)c(Cl)cc23)C(C)C1` (configuration not stated) gave a viability, T/C (compound 0.01 µM, compound 0.0316 µM) of 66.5%, a viability, T/C (compound 0.01 µM, compound 0.1 µM) of 64.5% and a viability, T/C (compound 0.01 µM, compound 0.316 µM) of 71%. It also gave a viability, T/C (compound 0.01 µM, compound 1 µM) of 61.3%, a viability, T/C (compound 0.0316 µM, compound 0.00316 µM) of 68.3% and a viability, T/C (compound 0.0316 µM, compound 0.01 µM) of 62.3%. It also gave a viability, T/C (compound 0.0316 µM, compound 0.1 µM) of 66.5%, a viability, T/C (compound 0.0316 µM, compound 0.316 µM) of 64% and a viability, T/C (compound 0.0316 µM, compound 1 µM) of 64.2%. For the same molecule, the viability, T/C (compound 0.0316 µM) was 67.5%, the viability, T/C (compound 0.1 µM, compound 0.00316 µM) was 59.4% and the viability, T/C (compound 0.1 µM, compound 0.01 µM) was 63.4%. It also gave a viability, T/C (compound 0.1 µM, compound 0.0316 µM) of 57.5%, a viability, T/C (compound 0.1 µM, compound 0.316 µM) of 66.9% and a viability, T/C (compound 0.1 µM, compound 1 µM) of 62.5%. It also gave a viability, T/C (compound 0.1 µM) of 64.9%, a viability, T/C (compound 0.316 µM, compound 0.00316 µM) of 69.2% and a viability, T/C (compound 0.316 µM, compound 0.01 µM) of 68%. The viability, T/C (compound 0.316 µM, compound 0.0316 µM) was 59.4%, the viability, T/C (compound 0.316 µM, compound 0.1 µM) was 66% and the viability, T/C (compound 0.316 µM, compound 1 µM) was 68%. It also gave a viability, T/C (compound 0.316 µM) of 66.3%, a viability, T/C (compound 1 µM, compound 0.00316 µM) of 76.3% and a viability, T/C (compound 1 µM, compound 0.01 µM) of 65.6%. For the same molecule, the viability, T/C (compound 1 µM, compound 0.0316 µM) was 64%, the viability, T/C (compound 1 µM, compound 0.1 µM) was 66.4% and the viability, T/C (compound 1 µM, compound 0.316 µM) was 65%. The viability, T/C (compound 1 µM) was 67.3% [middle of 13 runs], the pIC50 (compound alone, run of 07/15/2024) was under 6.00 and the pIC50 (curve of compound) was under 6.00.
With `CC(C)NCC(C(=O)N1CCN(c2ncnc3c2C(C)CC3O)CC1)c1ccc(Cl)cc1` (configuration not stated) the viability, T/C (compound 0.0316 µM) was 105% [middle of 4 runs], the viability, T/C (compound 0.1 µM) was 105% [middle of 4 runs] and the viability, T/C (compound 0.316 µM) was 98.4% [middle of 4 runs].
For `CC(Nc1ccc2c(c1)OCCn1cc(N3C(=O)OCC3C(F)F)nc1-2)C(N)=O` (configuration not stated), the viability, T/C (compound 10 µM) was 36.1% (2×) and 49.9% and 54.1% and the pIC50 (curve of compound) was 5.64 and < 5.00 and 5.70.
In the case of `CC1(O)CCCC1n1c(=O)c(C(F)F)cc2cnc(NC3CCN(S(C)(=O)=O)CC3)nc21` (configuration not stated), the viability, T/C (compound 0.0316 µM) was 100% [middle of 4 runs] and the viability, T/C (compound 10 µM) was 4.01% [middle of 4 runs].
`CCC(CC)c1cc(NC2CCC(N)C2)n2nccc2n1` (configuration not stated) was tested, and the viability, T/C (compound 0.0316 µM) was 115% [middle of 4 runs], the viability, T/C (compound 0.1 µM) was 112% [middle of 4 runs] and the viability, T/C (compound 0.316 µM) was 112% [middle of 4 runs]. The viability, T/C (compound 1 µM) was 109% and 108% (2×) and 113%, the viability, T/C (compound 3.16 µM) was 9.12% [middle of 4 runs] and the viability, T/C (compound 10 µM) was 1.18% [middle of 4 runs]. For the same molecule, the pIC50 (curve of compound) was 5.72 and 5.71 and 5.69.
For `C[C@@H](NC(=O)c1ncnc(N)c1Cl)c1ncc(C(=O)Nc2cc(C(F)(F)F)c(Cl)cn2)s1`, the viability, T/C (compound 0.0316 µM) was 102% (2×) and 107% and 101%, the viability, T/C (compound 0.1 µM) was 98.6% [middle of 4 runs] and the viability, T/C (compound 0.316 µM) was 105% and 98.1% and 104% (2×). The viability, T/C (compound 1 µM) was 104% [middle of 4 runs], the viability, T/C (compound 3.16 µM) was 96% [middle of 4 runs] and the pIC50 (curve of compound) was under 5.00.
In the case of `Cc1nc(N2CCC3(CC2)COC(C)C3N)c(CO)nc1Sc1ccnc(N)c1Cl` (configuration not stated), the viability, T/C (compound 0.0316 µM) was 108% [middle of 4 runs], the viability, T/C (compound 0.1 µM) was 106% (3×) and 107% and the viability, T/C (compound 0.316 µM) was 102% [middle of 4 runs]. It also gave a pIC50 (curve of compound) of under 5.00.
`NC1c2ccccc2OC12CCN(c1cnc3c(N4CCCc5ncccc54)n[nH]c3n1)CC2` (configuration not stated) was tested, and the viability, T/C (compound 0.0316 µM) was 106% [middle of 4 runs] and the pIC50 (curve of compound) was 5.35 and < 5.00 and 5.04.
